# Source: US9556165B2 (priority 2012, dated 2017)
# Where two headings read alike, the source gives them in different places.
# Key:
# Format in all cases: cell-based
# E. coli ATCC25922 = assay: MIC determination, broth microdilution (CLSI); settings: for MIC: Escherichia coli, ATCC25922, strain 1
# K. pneumoniae 60 = assay: MIC determination, broth microdilution (CLSI); settings: for MIC: Klebsiella pneumoniae, 60, strain 2
# E. cloacae 34654 = assay: MIC determination, broth microdilution (CLSI); settings: for MIC: Enterobacter cloacae, 34654, strain 3
# C. freundii K21/3034 = assay: MIC determination, broth microdilution (CLSI); settings: for MIC: Citrobacter freundii, K21/3034, strain 4
# M. morganii 126/3048 = assay: MIC determination, broth microdilution (CLSI); settings: for MIC: Morganella morganii, 126/3048, strain 5
# P. aeruginosa PAO1 = assay: MIC determination, broth microdilution (CLSI); settings: for MIC: Pseudomonas aeruginosa, PAO1, strain 6
# [1] = tested on: P. aeruginosa 2297 (AmpC wt); assay: MIC determination, broth microdilution (CLSI); settings: Pseudomonas aeruginosa, strain 7
# [2] = tested on: P. aeruginosa 2297-con (AmpC derepressed); assay: MIC determination, broth microdilution (CLSI); settings: Pseudomonas aeruginosa, read-out: strain 8 MIC, strain 8
# A. baumannii ATCC15308 = assay: MIC determination, broth microdilution (CLSI); settings: for MIC: Acinetobacter baumannii, ATCC15308, strain 9
# S. maltophilia ICB7569 = assay: MIC determination, broth microdilution (CLSI); settings: Stenotrophomonas maltophilia, ICB7569, strain 10
# S. aureus 133 = assay: MIC determination, broth microdilution (CLSI)
# H. influenzae ATCC 49247 = assay: MIC determination, broth microdilution (CLSI); settings: broth microdilution; for MIC: Haemophilus influenzae, ATCC49247, strain 12, read-out: MIC strain 12 (H. influenzae ATCC 49247)
# S. pneumoniae 113 = assay: MIC determination, broth microdilution (CLSI); settings: broth microdilution; for MIC: Streptococcus pneumoniae, 113, strain 13, read-out: MIC strain 13 (S. pneumoniae 113)
# B. fragilis 6688 = assay: MIC determination, broth microdilution (CLSI); settings: broth microdilution; for MIC: Bacteroides fragilis, 6688, strain 15, read-out: MIC strain 15 (B. fragilis 6688)
# C. perfringens DSM756 = assay: microbe, parasite or virus in culture; settings: broth microdilution; for MIC: Clostridium perfringens, DSM756, read-out: MIC strain 16 (C. perfringens DSM756), strain 16
# E. coli J62 = assay: MIC determination, broth microdilution (CLSI); settings: broth microdilution; for MIC: Escherichia coli, J62, strain 17, read-out: MIC strain 17 (E. coli J62)
# E. coli J62-TEM-3 = assay: MIC determination, broth microdilution (CLSI); settings: broth microdilution; for MIC: Escherichia coli, J62TEM3, read-out: MIC strain 18 (E. coli J62-TEM-3), strain 18
# Bacteria = assay: MIC determination in combination with β-lactamase inhibitors (constant 4 μg/mL)
# [3] = Staphylococcus aureus, 133, strain 11, read-out: strain 11 MIC
# [4] = Staphylococcus aureus, 133, strain 14, broth microdilution, read-out: MIC strain 14 (S. aureus 133)
Compound,MIC [1] [µg/mL],MIC [2] [µg/mL],MIC (S. maltophilia ICB7569) [µg/mL],MIC strain 19 (E. coli J62-TEM-3 + 4 μg/mL clavulanic acid) (Bacteria) [µg/mL],MIC strain 20 (E. coli J62-TEM-3 + 4 μg/mL sulbactam) (Bacteria),MIC strain 21 (E. coli J62-TEM-3 + 4 μg/mL tazobactam) (Bacteria) [µg/mL],MIC (E. coli ATCC25922) [µg/mL],MIC (K. pneumoniae 60) [µg/mL],MIC (E. cloacae 34654) [µg/mL],MIC (C. freundii K21/3034) [µg/mL],MIC (M. morganii 126/3048) [µg/mL],MIC (P. aeruginosa PAO1) [µg/mL],MIC (A. baumannii ATCC15308) [µg/mL],MIC (S. aureus 133; [3]) [µg/mL],MIC (H. influenzae ATCC 49247) [µg/mL],MIC (S. pneumoniae 113) [µg/mL],MIC (B. fragilis 6688) [µg/mL],MIC (C. perfringens DSM756) [µg/mL],MIC (E. coli J62) [µg/mL],MIC (E. coli J62-TEM-3) [µg/mL],other results
"CC1(C)[C@H](NC(=O)/C(=N\OCC(Oc2ccc(C(=N)N)cc2)C(=O)O)c2csc(N)n2)C(=O)N1OS(=O)(=O)O (single isomer, unassigned) [Example 87B]",32,32,16,0.5,1 µg/mL,2,,,,,,,,,,,,,,,strain 1 MIC (E. coli ATCC25922; strain 1): 0.5 µg/mL; strain 2 MIC (K. pneumoniae 60; strain 2): 0.5 µg/mL; strain 3 MIC (E. cloacae 34654; strain 3): 1 µg/mL; strain 4 MIC (C. freundii K21/3034; strain 4): 0.5 µg/mL; strain 5 MIC (M. morganii 126/3048; strain 5): 0.25 µg/mL; strain 6 MIC (P. aeruginosa PAO1; strain 6): 16 µg/mL; strain 9 MIC (A. baumannii ATCC15308; strain 9): 16 µg/mL; strain 11 MIC (S. aureus 133; strain 11): ≦0.063 mg/L; MIC strain 12 (H. influenzae ATCC 49247) (H. influenzae ATCC 49247; strain 12): 0.125 µg/mL; MIC strain 13 (S. pneumoniae 113) (S. pneumoniae 113; strain 13): 1 µg/mL; MIC strain 15 (B. fragilis 6688) (B. fragilis 6688; strain 15): 16 µg/mL; MIC strain 16 (C. perfringens DSM756) (C. perfringens DSM756; strain 16): 16 µg/mL; MIC strain 17 (E. coli J62) (E. coli J62; strain 17): 1 µg/mL; MIC strain 18 (E. coli J62-TEM-3) (E. coli J62-TEM-3; strain 18): 32 µg/mL
"CC1(C)[C@H](NC(=O)/C(=N\O[C@@H](COc2ccc(C(=N)NCCNc3ncccn3)cc2)C(=O)O)c2csc(N)n2)C(=O)N1OS(=O)(=O)O [Example 110, (2S)-2-({[(1Z)-1-(2-Amino-1,3-thiazol-4-yl)-2-{[(3S)-2,2-dimethyl-4-oxo-1-(sulfooxy)azetidin-3-yl]amino}-2-oxoethylidene]amino}oxy)-3-(4-{N-[2-(pyrimidin-2-ylami-no)ethyl]carbamimidoyl}phenoxy)propanoic acid]",8,16,8,0.5,0.5 µg/mL,0.5,0.5,1,1,0.5,0.25,8,32,≤ 0.063,≤ 0.063,0.25,16,8,1,32,
"CC1(C)[C@H](NC(=O)/C(=N\OCCOc2ccc(C(=N)NCCCN)cc2)c2csc(N)n2)C(=O)N1OS(=O)(=O)O [Example 83, (2Z)-2-[(2-{4-[N-(3-Aminopropyl)carbamimidoyl]phenoxy}ethoxy)imino]-2-(2-amino-1,3-thiazol-4-yl)-N-[(3S)-2,2-dimethyl-4-oxo-1-(sulfooxy)azetidin-3-yl]ethanamide]",4,4,16,0.125,0.25 µg/mL,0.25,0.125,0.25,0.25,0.125,0.5,2,0.25,≤ 0.063,≤ 0.063,≤ 0.063,4,2,0.25,4,MIC (S. aureus 133; [4]): 2 µg/mL
"CC(C)(N)CNC(=N)c1ccc(OC[C@H](O/N=C(\C(=O)N[C@@H]2C(=O)N(OS(=O)(=O)O)C2(C)C)c2csc(N)n2)C(=O)O)cc1 [Example 94, (2S)-3-{4-[N-(2-Amino-2-methylpropyl)carbamimidoyl]phenoxy}-2-({[(1Z)-1-(2-amino-1,3-thiazol-4-yl)-2-{[(3S)-2,2-dimethyl-4-oxo-1-(sulfooxy)azetidin-3-yl]amino}-2-oxoethylidene]amino}oxy)propanoic acid]",2,2,4,0.125,≦0.063 mg/L,0.125,0.125,0.125,0.125,0.125,0.125,2,2,≤ 0.063,≤ 0.063,0.5,8,0.5,0.25,8,MIC (S. aureus 133; [4]): 32 µg/mL
"Cc1sc(C(=N)N)nc1OCCO/N=C(\C(=O)N[C@@H]1C(=O)N(OS(=O)(=O)O)C1(C)C)c1csc(N)n1 [Example 74, (2Z)-2-(2-Amino-1,3-thiazol-4-yl)-2-({2-[(2-carbamimidoyl-5-methyl-1,3-thiazol-4-yl)oxy]ethoxy}imino)-N-[(3S)-2,2-dimethyl-4-oxo-1-(sulfooxy)azetidin-3-yl]ethanamide]",32,32,16,1,1 µg/mL,2,1,2,4,1,1,16,2,≤ 0.063,0.25,≤ 0.063,2,2,4,16,MIC (S. aureus 133; [4]): 32 µg/mL
"CC1(C)[C@H](NC(=O)/C(=N\OCCOc2ccc(C(=N)NCCN)nc2)c2csc(N)n2)C(=O)N1OS(=O)(=O)O [Example 82, (2Z)-2-{[2-({6-[N-(2-Aminoethyl)carbamimidoyl]pyridin-3-yl}oxy)ethoxy]imino}-2-(2-amino-1,3-thiazol-4-yl)-N-[(3S)-2,2-dimethyl-4-oxo-1-(sulfooxy)azetidin-3-yl]ethanamide]",16,8,32,0.25,0.25 µg/mL,0.5,0.25,0.125,0.5,0.25,0.5,8,4,≤ 0.063,≤ 0.063,≤ 0.063,4,4,0.25,8,MIC (S. aureus 133; [4]): 8 µg/mL
